# Entries after “also recorded” stand apart in the source; their conditions may differ.
# Legend:
# HCV 1b genotype = test: Lowering effect on serum HCV RNA levels in HCV-infected human hepatocyte-transplanted mice (PXB mice); assay type: in vivo, Hepatitis C virus; details: oral; for Change in serum HCV RNA levels, average: day 14 versus day 0
# Method: The lowering effect on serum HCV RNA levels was measured to determine the HCV replication inhibitory-effect of a compound of formula (I) of the invention were determined by measuring the serum HCV RNA levels.
# Human hepatocyte-transplanted model mice (PXB mice) were prepared from uPA^+/+/SCID mice as host mice. The uPA^+/+/SCID mice are characterized by a combination of liver damage and serious immune deficiency complications. Commercially available frozen human hepatocytes (BD Biosciences, MA, USA) were grafted by infusion into the spleens of male or female uPA^+/+/SCID mice that had reached a postnatal age of 2 to 4 weeks, to create human hepatocyte-transplanted mice (PXB mice) having at least 70% of the mouse liver parenchymal cells replaced with human hepatocytes. […] HCV 1b genotype-infected patient serum (PhoenixBio) was injected through the orbital socket to a virus titer of 1×10^4 copies/mouse as measured by RT-PCR (Life Technologies Corporation, Carlsbad, USA), for the HCV infection. […] […] The number of mice per group was five. The solvent alone was used as a negative control. Administration was done once per day for 14 consecutive days. With the initial administration as day 0, blood was collected on day 0, 1, 3, 7, 10, 14, 17 and 21, and the serum HCV RNA levels were measured.
# The percent change of blood HCV RNA levels in 14 days, which was 24 hours after final dosing (13 day), from those in day 0, which was predose, was calculated for each individual.
# LucNeo#2 replicon cells = test: Cytotoxicity, Alamar Blue in LucNeo#2 replicon cells; assay type: cell-based; details: 72 hours, percentage of solvent-treated group
# Method: (§1) LucNeo#2 replicon cells cultured to confluency were recovered by trypsin treatment, and were spread on a collagen-coated plate at a density of 20,000 cells/mL. The cell culture was conducted in an incubator at 37° C., 5% CO2, with 10% FCS/DMEM (containing mixed solution of penicillin-streptomycin, G418 and a non-essential amino acid). After 24 hours, the cells were rinsed and a compound of formula (I) was added as Test compound to final concentrations of 3.3 μM or 10 μM. At 72 hours after addition of the Test compound, the cells of one plate were rinsed, the cells were lysed with M-PER, and the intracellular luciferase activity was measured using a Promega kit. An Alamar Blue solution was also added to cells cultured under the same conditions, and the cytotoxicity was examined.
# (§2) The intracellular luciferase activity and the Alamar Blue signal for cytotoxicity at 72 hours after Test compound addition were shown in Table 3 as a percentage with respect to the solvent-treated group.
# [1] = Cytotoxicity, CytoTox-1 Cell Proliferation Assay in ET replicon cells; assay type: cell-based; details: human, luc-ubi-neo/ET HCV genotype 1b subgenomic replicon cells; Test compound alone, 50% reduction in viable cells, maximum concentration 1.1 μM
# Method: The HCV subgenome replicon cells used were luc-ubi-neo/ET replicon cells, having the genotype 1b HCV auto-replicating subgenomic replicon, a luciferase reporter, ubiquitin, a neomycin phosphotransferase coding sequence, and three mutations for cell culturing (Pietschmann, T. et al., J. Virol. 76:4008-4021, 2002). The ET replicon cells were cultured in DMEM containing 10% FBS, 1% penicillin/streptomycin, 1% glutamine, and 250 μg/mL G418 in an incubator at 37° C., 5% CO2. For culturing with a Test compound of formula (I), it was performed under the same conditions in DMEM containing 5% FBS, 1% penicillin/streptomycin and 1% glutamine. The ET replicon cells were cultured in two 96-well plates, at 5000 cell/well, separately. On the following day, the Test compound alone diluting to different concentrations with a maximum concentration of 1.1 μM, was added to one plate, while human recombinant Interferon-α-2b (rIFNα-2b) at a fixed concentration of 0.1 IU/mL was added to another plate with the Test compound, simultaneously. At 72 hours after addition, the luciferase activity indicating amplification of HCV mRNA was measured. The cytotoxicity was measured with a CytoTox-1 Cell Proliferation Assay (Promega Corporation). […]
# [2] = test system: genotype 1b HCV auto-replicating subgenomic replicon (luc-ubi-neo/ET replicon cells); test: Replicon assay, luciferase activity in luc-ubi-neo/ET HCV subgenome replicon cells; assay type: cell-based, Hepatitis C virus; details: for EC50: Hepatitis C virus, 72 h, read-out: HCV replication inhibitory activity EC50; for Selectivity IC50/EC50 / Luciferase activity: Test compound alone; for Luciferase activity: 72 hours, percentage of solvent alone
# Description: The inhibitory-effect on HCV replication and the cytotoxicity of a compound of formula (I) of the invention was examined by a replicon assay using HCV subgenome replicon cells.
# The HCV subgenome replicon cells used were luc-ubi-neo/ET replicon cells, having the genotype 1b HCV auto-replicating subgenomic replicon, a luciferase reporter, ubiquitin, a neomycin phosphotransferase coding sequence, and three mutations for cell culturing (Pietschmann, T. et al., J. Virol. 76:4008-4021, 2002). The ET replicon cells were cultured in DMEM containing 10% FBS, 1% penicillin/streptomycin, 1% glutamine, and 250 μg/mL G418 in an incubator at 37° C., 5% CO2. For culturing with a Test compound of formula (I), it was performed under the same conditions in DMEM containing 5% FBS, 1% penicillin/streptomycin and 1% glutamine. The ET replicon cells were cultured in two 96-well plates, at 5000 cell/well, separately. On the following day, the Test compound alone diluting to different concentrations with a maximum concentration of 1.1 μM, was added to one plate, while human recombinant Interferon-α-2b (rIFNα-2b) at a fixed concentration of 0.1 IU/mL was added to another plate with the Test compound, simultaneously. At 72 hours after addition, the luciferase activity indicating amplification of HCV mRNA was measured. The cytotoxicity was measured with a CytoTox-1 Cell Proliferation Assay (Promega Corporation).
# The luciferase activities, for the compound of formula (I) alone and for a combination of the compound of formula (I) and rIFNα-2b, were shown in Table 1 as percentage with respect to luciferase activity when using the solvent alone. The HCV replication inhibitory-activity was determined as the concentration which produced 50% inhibition of HCV replicon (EC50), and the cytotoxicity was determined as the concentration which produced 50% reduction in viable cells (IC50), while the selectivity was determined as the value of IC50/EC50; the results are summarized in Table 2.
# [3] = test system: HCV subgenomic replicon (LucNeo#2 replicon cells); test: Replicon assay, intracellular luciferase activity in LucNeo#2 replicon cells; assay type: cell-based, Hepatitis C virus; details: for Luciferase activity: 72 hours, percentage of solvent-treated group; for HCV replication inhibitory-activity (in words): LucNeo#2 replicon cells, 3.3 and 10 μM
# Description: The inhibitory-effect on HCV replication and the cytotoxicity of a compound of formula (I) of the invention were examined by a replicon assay method using different HCV subgenomic replicon cells from Example 1, specifically LucNeo#2 replicon cells. The LucNeo#2 replicon cells are reporter cells created with the same concept as the luc-ubi-neo/ET replicon cells used in Test Example 1, and are utilized for analysis of the RNA replication mechanism of HCV or anti-HCV drug evaluation, but the gene sequence differs from that of luc-ubi-neo/ET replicon cells (Biochem. Biophys. Res. Commun. 343 (2006) 879-884).
# as §1, §2
# [4] = used in combination with rIFNα-2b
Compound,"Change in serum HCV RNA levels, average (HCV 1b genotype; 10 mg/kg/day once per day for 14 days) [%]","Change in serum HCV RNA levels, average (HCV 1b genotype; 30 mg/kg/day once per day for 14 days) [%]","Change in serum HCV RNA levels, average (HCV 1b genotype; 100 mg/kg/day once per day for 14 days) [%]",Serum HCV RNA level (in words) (HCV 1b genotype; 14 days),Cytotoxicity (Alamar Blue signal) (LucNeo#2 replicon cells; 3.3 μM) [%],Cytotoxicity (Alamar Blue signal) (LucNeo#2 replicon cells; 10 μM) [%],IC50 at 72 h [1] [nM],EC50 [2] [nM],Selectivity IC50/EC50 [2],Luciferase activity ([2]; 0.001 μM) [%],Luciferase activity ([2]; 0.003 μM) [%],Luciferase activity ([2]; 0.03 μM) [%],Luciferase activity ([2]; 0.11 μM) [%],Luciferase activity ([2]; 0.35 μM) [%],Luciferase activity ([2]; 1.1 μM) [%],HCV replication inhibitory-activity (in words) ([2]; Test compound used alone),"HCV replication inhibitory-activity (in words) [2, 4]",Luciferase activity ([3]; 3.3 μM) [%],Luciferase activity ([3]; 10 μM) [%],HCV replication inhibitory-activity (in words) [3]
"COc1cc(/C=C2\CCCN([C@@H](C)c3ccc(F)cc3)C2=O)ccc1-n1cnc(C)c1 [Test compound A, (E)-1-[(1S)-1-(4-fluorophenyl)ethyl]-3-[3-methoxy-4-(4-methyl-1H-imidazol-1-yl)benzylidene]piperidin-2-one]",73.0,50.4,32.6,dose-dependent reduction in serum HCV RNA level,100.00,101.50,> 1100,360,>3.06,87,89,87,89,51,21,approximately dose-dependent HCV replication inhibitory-activity; also recorded: potent HCV replication inhibitory-activity at lower concentrations than the concentrations for the cytotoxicity,more potent reduction of HCV replication with dose-dependent manner; also recorded: even more potent HCV replication inhibitory-activity at lower concentrations than the concentrations for the cytotoxicity,116.60,42.80,potent HCV replication inhibitory-activity by reducing the luciferase activity in a dose-dependent manner
"COc1cc(/C=C2\CC[C@H]3COC[C@@H](c4cc(F)c(F)c(F)c4)N3C2=O)ccc1-n1cnc(C)c1 [Test compound B, (E)-(4R,9aS)-7-[3-methoxy-4-(4-methyl-1H-imidazol-1-yl)benzylidene]-4-(3,4,5-trifluorophenyl)hexahydropyrido[2,1-c][1,4]oxazin-6-one]",–,–,–,–,101.00,100.75,> 1100,310,>3.55,72,73,62,68,48,30,approximately dose-dependent HCV replication inhibitory-activity; also recorded: potent HCV replication inhibitory-activity at lower concentrations than the concentrations for the cytotoxicity,more potent reduction of HCV replication with dose-dependent manner; also recorded: even more potent HCV replication inhibitory-activity at lower concentrations than the concentrations for the cytotoxicity,50.30,27.80,potent HCV replication inhibitory-activity by reducing the luciferase activity in a dose-dependent manner
